In test [1] the test system is P. falciparum (strain 3D7). As to conditions: cited from earlier work.
The subject of test [2] is hGrx1-roGFP2 in P. falciparum 3D7. Put plainly: cytosolic glutathione redox sensor in parasites. As to conditions: 100 nM, 24 h. Format: cell-based, Plasmodium falciparum. As for the experimental part: To further study the mechanism of action of the steroid compounds and evaluate the potential involvement of redox stress, compound 1o was tested in cell culture on the chloroquine-sensitive P. falciparum 3D7 strain expressing the cytosolic glutathione redox sensor hGrx1-roGFP2 (Supplementary Note 2). […]
signals at 405/475 nm were calculated and plotted against time and/or concentration of compound 1o or redox active compounds. Data from three independent experiments were […]
100 µM for 4 h and 24 h incubations. Transfection of the Pf3D7 strain with the redox sensor was carried out, and the parasites were cultured as described under constant drug pressure with 5 nM WR99210 (Jacobus Pharmaceuticals, New Jersey, USA).45,46 P. falciparum trophozoites were enriched via magnet separation.47 Parasitemia was counted by using Giemsa-stained blood smears. The IC50 of compound 1o on P. falciparum 3D7 asexual blood stages was verified to be about 5 nM in an additional 72 h [3H] incorporation assay45 directly before the experiment. The effect of compound 1o on P. falciparum was investigated in 4 h and 24 h incubations. For 4 h experiments, trophozoite stage parasites (26-30 h post invasion) of 3D7[hGrx1-roGFP2] (6-8% parasitemia) were magnetically enriched (Miltenyi Biotec, Germany), counted by using the improved Neubauer hemocytometer (Brand GmbH, Germany), and returned to cell culture (at 0.5 x 10^6 trophozoites/µl) for at least 1 h to recover.
1.0 x 10^6 cells in 100 µl cell culture medium were placed into LoBind tubes (Eppendorf) for 4 h incubation experiments. The parasites were treated with compound 1o at 50 x, and 100 x IC and with mefloquine (MQ) as a standard antimalarial drug at 1 µM (IC = 8 nM)45 for 4 h […]
for 15 min at 37 °C. For 24 h experiments, a 5 ml culture (6-8% parasitemia) of ring stage parasites (6-10 h post invasion) was treated with compound 1o at 4 x, 10 x, 20 x IC50 and with 100 nM MQ. Prior to enrichment, cysteines were blocked with 2 mM NEM. For 4 h and 24 h experiments, cells were washed after incubation with pre-warmed Ringer’s solution […]
Hepes, 1 mM NaH2PO4, pH 7.4) and were seeded onto poly-L-lysine-coated µ-slides VI (Ibidi, Martinsried, Germany). A Leica confocal system TCS SP5 inverted microscope equipped with the objective HCX PL APO 63.0x1.30 GLYC 37 °C UV connected to a 37 °C temperature chamber was used. The argon laser power was set to 20%; scanning was performed at 400 Hz frequency and at a 512 × 512 pixel resolution. The smart gain and […]
smart offset were 950 V and -0.9%, respectively. With a sequential scan, we excited the sensor at 405 nm and at 488 nm and detected emissions at 500-550 nm. Laser intensity for both lines was adjusted to match the full dynamic range of the probe to the dynamic range of the detector (405 nm: 12%, 488 nm: 4%). Autofluorescence images were simultaneously taken at ex 405 nm / em 430-450 nm and individually defined together with the background for every image, but no fluorescence signal could be detected. All experiments included non- […]
and 10 mM DTT (2 min incubation), respectively, prior to blocking with NEM. Only parasites showing fluorescent signals at both 405 and 488 nm excitation and an intact host cell were chosen for analysis. Each experiment was carried out three times. At least 10 parasites were analyzed, resulting in at least 30 experimental values per incubation. The Leica LAS AF Lite software for fluorescence analysis was used. The 405/488 nm ratio was calculated. The obtained ratio values were normalized to the control ratio value, which was set to 100. The graphs were plotted using the GraphPad Prism 5 software (San Diego, CA, USA). One way-ANOVA test with 95% confidence intervals with the Dunnett’s Multiple Comparison Test was applied for statistical analysis of significance (*, p < 0.05; **, p < 0.01; ***, p < 0.001). […]
with 1 µM MQ. 24 h incubation (Supplementary Figure 8 panel B) with compound 1o resulted in a higher increase of the fluorescence ratio in a concentration-dependent manner. […]

Test [3] has as its system haem. Put plainly: ESI-MS collision-induced dissociation of haem adducts. Format: binding. As to conditions: 50 µM haem and 50 µM substrate. As for the experimental part: Compound Molar Adduct DV50 Bottom Dissociation mass [Haem+S] (V) plateau Constant
Supplementary Table 7. ESI-MS-CID data (m/z, calculated DV50 = dissociation voltage at 50% and % bottom plateau) of the [haematin-drug]+ adducts and dissociation constants (KD, µM) of the haematin-drug complexes measured with absorption spectrophotometric titrations.
Conditions: 50 µM haem and 50 µM substrate in H2O/CH3CN (5/95) + 0.1% formic acid.
Stability responses of the haem substrate adduct were obtained via ESI-CID experiments.
Positive mode; fragmentor voltage from 20 V to 400 V with 20 V increments. […]
- 41/120 g), and complete dissolution was achieved using an ultrasonic bath. All solutions were protected from daylight to avoid any photochemical degradation. All the physiochemical measurements were carried out at 25.0(2) °C. […]
Electrospray mass spectrometric measurements stopping point
Electrospray mass spectra of the haem complexes were obtained with an Agilent Technologies 6120 quadrupole equipped with an electrospray (ESI) interface. For

Test [4] deals with P. falciparum strain Dd2. The arrangement: method as in PMID 24348249. As to conditions: chloroquine-resistant strain Dd2; cited from earlier work.
Test [5] addresses haem (FeIIIPPIX, π-π dimer). Put plainly: spectrophotometric titration of haematin π-π dimer. Format: binding. As to conditions: absorption spectrophotometric titration, pH 7.5; read-out: Dissociation Constant KD of haematin-drug complex.
For test [6], the system named is P. falciparum NF54. Put plainly: IC50 speed assay. Format: cell-based, Plasmodium falciparum. As to conditions: Plasmodium falciparum. As for the experimental part: To assess the rapidity of growth inhibition induced by the steroid compounds, the so-called IC50 speed assay[16] was conducted for compound 1o on P. falciparum NF54 (Fig. 2a,b).
Test [7] concerns Enterococcus faecalis JMRC:ST:33700 (Vancomycin-resistant). Put plainly: agar diffusion inhibition zone test. The test is classed as cell-based. As to conditions: 1o, 2o 1,000 µg/ml in DMSO; ciprofloxacin 5 µg/ml; solvent DMSO 12P. The method, then: (§1) The following organisms were tested at the Hans Knöll Institute in Jena, for their susceptibility to the compounds 1o and 2o: Bacillus subtilis JMRC:STI:10880, Staphylococcus aureus JMRC:ST:10760, Escherichia coli JMRC:ST:33699, Pseudomonas aeruginosa JMRC:ST:33772, Pseudomonas aeruginosa JMRC:ST:337721, Staphylococcus aureus JMRC:ST:33793 (multi-resistant), Enterococcus faecalis JMRC:ST:33700 (Vancomycin-resistant), Mycobacterium vaccae JMRC:STI:10670, Sporobolomyces salmonicolor (Basidiomycetes yeast) JMRC:ST:35974, Candida albicans (Ascomycetes yeast) JMRC:STI:25000, Penicillium notatum JMRC:STI:50164.
(§2) The bacteria were propagated in Mueller Hinton Broth (Oxoid)[49]. Yeast was propagated in YPD (yeast extract peptone dextrose): 1% yeast extract, 10 g; 2% peptone, 20 g; 2% agar, 20 g; 2% dextrose (glucose), 20 g; Sigma-Y1375. All bacteria and yeast suspensions were freshly made. The cultures were incubated at 37 °C for 16 h. Afterwards, the bacteria concentration from each culture was determined, and 34 ml of nutrient agar was loaded with 10^7 cells. These cultures were stored at 6-8 °C and could be used for seven days for the preparation of test plates. 34 ml of nutrient agar was liquefied and inoculated with the calculated amount of inoculum bacteria suspension at 48–50 °C, a temperature suitable for vegetative forms of bacteria. The inoculated nutrient media (34 ml each) were immediately poured into the prepared test plates (3 mm layer). With a punching device, 12 holes per test plate were punched out. For inhibiting bacterial growth, ciprofloxacin was used as a reference substance. The test substances were dissolved in distilled water, and 5 μg ml^−1 and 50 μl was added to each bacterial culture. For inhibition of fungal growth, amphotericin B served as the reference substance. The test substances were diluted to 10 μg ml^−1 in DMSO/methanol; 50 μl was added to each culture.
(§3) Configuring the test plate; volumes/punched hole: 50 μl; test solutions/test plate: 1 × 50 μl reference substance. Test plates were cultivated for 18 h at 37 °C. Analysis: Reading the inhibition zones (IZ): As IZ, the zone in which no growth can be determined with the naked eye is measured; the tiniest colonies on the edge of the inhibition zone were therefore not taken into consideration. The diameter (φ) of the IZ is measured in mm. The analysis of IZ φ is carried out internationally with the help of statistic procedures, especially regression analysis. With each test approach, the reference substance was brought along as a control; if there were deviations from allowed IZ φ, the test was repeated.
(§4) The inhibition of bacterial growth was determined using bacterial cultures grown in Müller-Hinton Bouillon, which was configured at barely visible opacity with the McFarland Standard Nr. 0.5, which indicates a bacterial density of 10^8 ml^−1. This bacterial suspension was diluted with Müller-Hinton Bouillon using 2-fold dilution series in the agar diffusion test.
(§5) Analysis: The growth in the inhibition zones around the holes containing active substances is thereby compared with the growth in the growth control (no active substance). Bacterial growth was determined according to four measurements: p=presence of colonies in the inhibition zone, P=presence of many colonies in the inhibition zone, A=indication of inhibition, F=facilitation.
Background: In agar diffusion tests the substance spreads into inoculated agar from a disc or well.

In test [8] the test system is Bacillus subtilis JMRC:STI:10880. Put plainly: agar diffusion inhibition zone test. Format: cell-based. As to conditions: Bacillus subtilis; 1o, 2o 1,000 µg/ml in DMSO; ciprofloxacin 5 µg/ml; solvent DMSO 12P; read-out: inhibition zone diameter, Bacillus subtilis (B1). The method, then: as §1, §2, §3, §4, §5
Test [9] relates to Staphylococcus aureus JMRC:ST:10760. Put plainly: agar diffusion inhibition zone test. As to conditions: Staphylococcus aureus; 1o, 2o 1,000 µg/ml in DMSO; ciprofloxacin 5 µg/ml; solvent DMSO 12P; read-out: inhibition zone diameter, Staphylococcus aureus (B3). Format: cell-based. The method, then:
as §1, §2, §3, §4, §5

Test [10] has as its system Pseudomonas aeruginosa JMRC:ST:33772. Put plainly: agar diffusion inhibition zone test. Format: cell-based. As to conditions: Pseudomonas aeruginosa; 1o, 2o 1,000 µg/ml in DMSO; ciprofloxacin 5 µg/ml; solvent DMSO 13P; read-out: inhibition zone diameter, Pseudomonas aeruginosa JMRC:ST:33772 (B7). As for the experimental part: as §1, §2, §3, §4, §5
Test [11] concerns Staphylococcus aureus JMRC:ST:33793 (multi-resistant). Put plainly: agar diffusion inhibition zone test. Format: cell-based. As to conditions: Staphylococcus aureus, MRSA; 1o, 2o 1,000 µg/ml in DMSO; ciprofloxacin 5 µg/ml; solvent DMSO 12P; read-out: inhibition zone diameter, MRSA Staph. aureus (R9). As for the experimental part:
as §1, §2, §3, §4, §5

The test system of test [12] is Mycobacterium vaccae JMRC:STI:10670. Put plainly: agar diffusion inhibition zone test. As to conditions: Mycolicibacterium vaccae; 1o, 2o 1,000 µg/ml in DMSO; ciprofloxacin 5 µg/ml; solvent DMSO 13P; read-out: inhibition zone diameter, Mycobac. vaccae (M4). The test is classed as cell-based. As for the experimental part: as §1, §2, §3, §4, §5
Where [13] appears, read: same methods (72 h 3H-hypoxanthine incorporation assay), read-out: IC50 on 3D7.

Where two headings read alike, the source gives them in different places.

As for `OC(c1cc(C(F)(F)F)nc2c(C(F)(F)F)cccc12)C1CCCCN1` (stereo not drawn) [mefloquine, reference compound], in [1] (read-out: IC50 of mefloquine), the half-inhibitory concentration (IC50) – broadly, the point on the concentration scale where inhibition reaches its midpoint – was 8 nM. Moreover, the “change of 405/488 nm fluorescence ratio” value in test [2] was determined as 1.5 fold.

On to `CCN(CC)CCCC(C)Nc1ccnc2cc(Cl)ccc12` (stereo not drawn) [chloroquine], for which the IC50 in [1] (setting [13]) was 8.6 nM; in [4], 90.2 nM; in test [6] (NF54, 24 h, read-out: IC50 24 h), 8.3 ± 2.1 nM; in [6] (NF54, 48 h, read-out: IC50 48 h) it was 7.5 ± 0.9 nM; in test [6] (NF54, 72 h, read-out: IC50 72 h) it was 7.4 ± 1.1 nM. Further, the “DV50 (dissociation voltage at 50%) of haem adduct” value in test [3] (ESI-CID, 20 V to 400 V) turned out to be 201 V. For the same compound, in [3] (fragmentor voltage 400 V), the “Bottom plateau (adduct remaining at 400 V)” value was found to be 0%. Also, the Kd (usually a measure of binding affinity in units of concentration) in test [5] amounted to 1300 nM.

Take `O=C(O)c1cn(C2CC2)c2cc(N3CCNCC3)c(F)cc2c1=O` [Ciprofloxacin, ciprofloxacin, reference compound]: the inhibition zone diameter, VRSA Enteroc. faecalis (R10) in test [7] was found to be 16 mm. In addition, the zone of inhibition at 5 µg/mL in [8] worked out at 31 mm; in [9], 19 mm; in [10], 27 mm; in [11], 0 mm; in test [12] it was 21 mm.

As to `C[C@@H]1CC[C@H]2[C@@H](C)C(=O)O[C@@H]3O[C@@]4(C)CC[C@@H]1[C@]32OO4` [artemisinin], the 50% inhibitory concentration (IC50) in test [1] (setting [13]) is 17.3 nM; in test [4], 20.4 nM.
